Reference: patent publication US20240000806A1, “METHODS AND MATERIALS FOR INHIBITING CB1 ACTIVITY” (University of Pittsburgh - Of the Commonwealth System of …, priority 2020, published 2024)

These compounds were tested against CB1 (CNR1) (Homo sapiens, UniProt P21554) (assay: cAMP CNR1 Hunter cell line antagonist assay (CB1 assay)). Conditions: antagonist mode, cAMP CNR1 Hunter cells, EC80 agonist; read-out: CB1 assay, Efficacy (IC50).
Assay type: cell-based
Experimental: cAMP CNR1 Hunter cell line (Eurofins DiscoveryX) were expanded from freezer stocks and seeded in a total volume of 20 μL into white walled, 384-well microplates and incubated at 37° C. for the appropriate time prior to testing. For antagonist determination, cell media was aspirated from cells and replaced with 10 μL 1:1 HBSS/Hepes:cAMP XS+Ab reagent. 5 μL of 4× compound was added to the cells and incubated at 37° C. for 30 minutes. 5 μL of 4× EC80 agonist was added to cells and incubated at 37° C. for 30 minutes. After appropriate compound incubation, assay signal was generated through incubation with 20 μL cAMP XS+ED/CL lysis cocktail for one hour followed by incubation with 20 μL cAMP XS+EA reagent for three hours at room temperature. Microplates were read following signal generation with a PerkinElmer Envision™ instrument for chemiluminescent signal detection. Compound activity (IC50) was analyzed using CBIS data analysis suite (ChemInnovation, CA).

Sequence of CB1 (CNR1) (P21554 whole entry): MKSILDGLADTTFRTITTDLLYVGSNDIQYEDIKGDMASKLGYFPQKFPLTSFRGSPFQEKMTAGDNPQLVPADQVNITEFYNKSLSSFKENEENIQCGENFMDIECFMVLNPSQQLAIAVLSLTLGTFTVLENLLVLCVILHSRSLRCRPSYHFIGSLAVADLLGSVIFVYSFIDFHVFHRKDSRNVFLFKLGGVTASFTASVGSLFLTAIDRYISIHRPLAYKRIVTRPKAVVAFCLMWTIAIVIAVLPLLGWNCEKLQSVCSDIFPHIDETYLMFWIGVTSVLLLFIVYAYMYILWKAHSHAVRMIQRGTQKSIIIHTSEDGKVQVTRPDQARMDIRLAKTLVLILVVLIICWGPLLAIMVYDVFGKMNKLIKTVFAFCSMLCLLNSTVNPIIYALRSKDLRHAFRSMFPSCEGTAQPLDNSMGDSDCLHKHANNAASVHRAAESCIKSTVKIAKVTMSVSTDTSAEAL

| Compound | IC50 |
| --- | --- |
| CC1Oc2cc(S(=O)(=O)Nc3ccc(F)cc3Cl)c(Br)cc2N(C)C1=O (stereo not shown) [BC19907] | ≥ 25 µM |
| O=C1COc2cc(S(=O)(=O)NC3CCC(O)CC3)c(Br)cc2N1 (stereo not shown) [BC19389] | ≥ 25 µM |
| CC1Oc2c(cc(Cl)cc2S(=O)(=O)Nc2cccc(Cl)c2)NC1=O (stereo not shown) [BC19716] | 1 to 25 µM |
| COc1ccc(NS(=O)(=O)c2cc3c(cc2Br)N(C)C(=O)C(C)O3)cc1Cl (stereo not shown) [BC19919] | ≥ 25 µM |
| CCC1Oc2c(cc(Br)cc2S(=O)(=O)Nc2ccccc2)N(C)C1=O (stereo not shown) [BC19927] | ≥ 25 µM |
| CC1Oc2cc(S(=O)(=O)Nc3ccc(F)c(F)c3)c(Br)cc2N(C)C1=O (stereo not shown) [BC19788] | 1 to 25 µM |
| CC1Oc2c(cc(Br)cc2S(=O)(=O)Nc2cccc(F)c2)N(C)C1=O (stereo not shown) [BC19902] | ≥ 25 µM |
| CCS(=O)(=O)c1cc2c(c(S(=O)(=O)Nc3ccc(C)c(F)c3)c1)OCC(=O)N2 [BC19436] | ≥ 25 µM |
| CCC1Oc2cc(S(=O)(=O)NC3CCCCC3)c(Br)cc2NC1=O (stereo not shown) [BC19223] | 1 to 25 µM |
| CNC(=O)N1CC(=O)Nc2ccc(S(=O)(=O)N3CCCC3)cc21 [BC19183] | 1 to 25 µM |
| Cc1ccc(NS(=O)(=O)c2cc(Br)cc3c2OC(C)C(=O)N3C)cc1Cl (stereo not shown) [BC19796] | 1 to 25 µM |
| O=C1COc2cc(S(=O)(=O)NCCc3ccc(OC(F)(F)F)cc3)c(Br)cc2N1 [BC19387] | ≥ 25 µM |
| O=C1NCCOc2c1cc(Br)cc2S(=O)(=O)Nc1ccc(F)cc1F [BC19608] | ≥ 25 µM |
| O=C1NCCOc2c1cc(Br)cc2S(=O)(=O)Nc1ccc(F)cc1Cl [BC19613] | ≥ 25 µM |
| CS(=O)(=O)c1cc2c(c(S(=O)(=O)Nc3ccc(Cl)cc3)c1)OCC(=O)N2 [BC19483] | ≥ 25 µM |
| CC1Oc2c(cc(Br)cc2S(=O)(=O)NCCc2ccc(OC(F)(F)F)cc2)NC1=O (stereo not shown) [BC19364] | 1 to 25 µM |
| CC(=O)N1CC(=O)Nc2ccc(S(=O)(=O)N3CCCC3)cc21 [BC19295] | ≥ 25 µM |
| CCS(=O)(=O)c1cc2c(c(S(=O)(=O)Nc3ccc(F)cc3F)c1)OCC(=O)N2 [BC19545] | ≥ 25 µM |
| Cc1ccc(NS(=O)(=O)c2cc(S(C)(=O)=O)cc3c2OCC(=O)N3)cc1 [BC19488] | ≥ 25 µM |
| N#Cc1ccc(NS(=O)(=O)c2cc(Br)cc3c2OCCNC3=O)cc1 [BC19615] | ≥ 25 µM |
| O=C1COc2c(cc(Br)cc2S(=O)(=O)NC2CCC(O)CC2)N1 (stereo not shown) [BC19381] | ≥ 25 µM |
| Cc1ccc(NS(=O)(=O)c2cc3c(cc2Br)NC(=O)CCO3)cc1F [BC19653] | ≥ 25 µM |
| CCC1Oc2c(cc(Br)cc2S(=O)(=O)Nc2ccc(F)cc2F)N(C)C1=O (stereo not shown) [BC19913] | 1 to 25 µM |

| Compound | IC50 |
| --- | --- |
| O=C1CCOc2c(cc(Br)cc2S(=O)(=O)Nc2cccc(Cl)c2)N1 [BC19650] | ≥ 25 µM |
| CC1Oc2c(cc(Br)cc2S(=O)(=O)NC2CCC(C(C)(C)C)CC2)NC1=O (stereo not shown) [BC19367] | ≥ 25 µM |
| COc1ccc(NS(=O)(=O)c2cc(S(C)(=O)=O)cc3c2OCC(=O)N3)cc1Cl [BC19429] | ≥ 25 µM |
| CCc1cccc(NS(=O)(=O)c2cc(Br)cc3c2OC(CC)C(=O)N3C)c1 (stereo not shown) [BC19915] | 1 to 25 µM |
| CCS(=O)(=O)c1cc2c(c(S(=O)(=O)Nc3ccc(F)cc3Cl)c1)OCC(=O)N2 [BC19442] | ≥ 25 µM |
| CC1Oc2cc(S(=O)(=O)NCc3ccc(C(F)(F)F)cc3)c(Br)cc2NC1=O (stereo not shown) [BC19358] | 1 to 25 µM |
| CC1Oc2c(cc(Br)cc2S(=O)(=O)Nc2ccc(F)cc2F)N(C)C1=O (stereo not shown) [BC19798] | ≥ 25 µM |
| CC1Oc2c(cc(Br)cc2S(=O)(=O)NCc2ccc(F)cc2F)NC1=O (stereo not shown) [BC19362] | ≥ 25 µM |
| CCS(=O)(=O)c1cc2c(c(S(=O)(=O)Nc3cccc(F)c3)c1)OCC(=O)N2 [BC19440] | ≥ 25 µM |
| CC(C)CNS(=O)(=O)c1cc2c(cc1Br)NC(=O)C(C)O2 (stereo not shown) [BC19218] | 1 to 25 µM |
| CC(C)(C)C1CCC(NS(=O)(=O)c2cc(Br)cc3c2OCC(=O)N3)CC1 (stereo not shown) [BC19380] | ≥ 25 µM |
| CN1CC(=O)Nc2ccc(S(=O)(=O)N3CCCC3)cc21 [BC19181] | ≥ 25 µM |
| NS(=O)(=O)c1ccc2c(c1)N1CCCC1C(=O)N2 (stereo not shown) [BC19300] | ≥ 25 µM |
| CCS(=O)(=O)c1cc2c(c(S(=O)(=O)Nc3cccc(Cl)c3)c1)OCC(=O)N2 [BC19441] | ≥ 25 µM |
| O=C1COc2cc(S(=O)(=O)NCc3ccc(OC(F)(F)F)cc3)c(Br)cc2N1 [BC19392] | ≥ 25 µM |
| CCc1ccc(NS(=O)(=O)c2cc(S(=O)(=O)CC)cc3c2OCC(=O)N3)cc1 [BC19492] | ≥ 25 µM |
| CC1Oc2c(cc(Cl)cc2S(=O)(=O)Nc2cccc(F)c2)NC1=O (stereo not shown) [BC19714] | ≥ 25 µM |
| CC1Oc2c(cc(Br)cc2S(=O)(=O)Nc2ccc(F)cc2Cl)NC1=O (stereo not shown) [BC19289] | ≥ 25 µM |
| CCS(=O)(=O)c1cc2c(c(S(=O)(=O)Nc3ccc(C)c(Cl)c3)c1)OCC(=O)N2 [BC19544] | ≥ 25 µM |
| O=C1COc2c(cc(Br)cc2S(=O)(=O)Nc2ccc(F)cc2F)N1 [BC19178] | < 1 µM |
| Cc1ccc(NS(=O)(=O)c2cc(Br)cc3c2OC(C)C(=O)N3C)cc1F (stereo not shown) [BC19785] | ≥ 25 µM |
| CC1Oc2c(cc(Cl)cc2S(=O)(=O)Nc2ccccc2)NC1=O (stereo not shown) [BC19291] | ≥ 25 µM |
| CC1C(=O)Nc2ccc(S(=O)(=O)N3CCCC3)cc2N1C(=O)N1CCOCC1 (stereo not shown) [BC19297] | ≥ 25 µM |

Continued, values first:

| IC50 | Compound |
| --- | --- |
| ≥ 25 µM | CCNS(=O)(=O)c1cc2c(cc1Cl)NC(=O)C(C)O2 (stereo not shown) [BC19209] |
| < 1 µM | CC1Oc2cc(S(=O)(=O)Nc3ccc(C#N)cc3)c(Cl)cc2NC1=O (stereo not shown) [BC19729] |
| 1 to 25 µM | CCc1cccc(NS(=O)(=O)c2cc3c(cc2Br)NC(=O)C(CC(C)C)O3)c1 (stereo not shown) [BC19772] |
| 1 to 25 µM | Cc1ccc(NS(=O)(=O)c2cc(Br)cc3c2OC(CC(C)C)C(=O)N3)cc1Cl (stereo not shown) [BC19767] |
| ≥ 25 µM | CCc1cccc(NS(=O)(=O)c2cc3c(cc2Cl)NC(=O)C(C)O3)c1 (stereo not shown) [BC19711] |
| ≥ 25 µM | CCC1Oc2cc(S(=O)(=O)Nc3cc(Cl)ccc3C)c(Cl)cc2NC1=O (stereo not shown) [BC19215] |
| ≥ 25 µM | CCS(=O)(=O)c1cc2c(c(S(=O)(=O)Nc3ccc(OC)cc3)c1)OCC(=O)N2 [BC19438] |
| ≥ 25 µM | CC1Oc2cc(S(=O)(=O)Nc3ccccc3)c(Cl)cc2NC1=O (stereo not shown) [BC19206] |
| 1 to 25 µM | CCC1Oc2cc(S(=O)(=O)Nc3ccc(OC)cc3)c(Cl)cc2NC1=O (stereo not shown) [BC19211] |
| 1 to 25 µM | CCC1Oc2c(cc(Cl)cc2S(=O)(=O)Nc2ccc(Cl)cc2)NC1=O (stereo not shown) [BC19740] |
| 1 to 25 µM | CCOc1ccc(NS(=O)(=O)c2cc3c(cc2Br)NC(=O)CO3)cc1 [BC19135] |
| < 1 µM | Cc1cc2c(cc1S(=O)(=O)Nc1ccc(Cl)cc1)OCC(=O)N2 [BC19131] |
| 1 to 25 µM | CCc1ccc(NS(=O)(=O)c2cc(Br)cc3c2OCC(=O)N3)cc1 [BC19179] |
| ≥ 25 µM | CCC1Oc2cc(S(=O)(=O)NCc3ccc(C(F)(F)F)cc3)c(Br)cc2NC1=O (stereo not shown) [BC19370] |
| ≥ 25 µM | O=C1CCOc2cc(S(=O)(=O)Nc3ccc(Cl)cc3)c(Br)cc2N1 [BC19656] |
| ≥ 25 µM | COc1ccc(NS(=O)(=O)c2cc(Cl)cc3c2OC(C)C(=O)N3)cc1 (stereo not shown) [BC19707] |
| ≥ 25 µM | O=C1CCOc2cc(S(=O)(=O)Nc3ccc(OC(F)(F)F)cc3)c(Br)cc2N1 [BC19652] |
| ≥ 25 µM | CC(C)CC1Oc2cc(S(=O)(=O)Nc3ccc(F)cc3)c(Br)cc2NC1=O (stereo not shown) [BC19782] |
| 1 to 25 µM | CCC1Oc2cc(S(=O)(=O)Nc3ccccc3)c(Cl)cc2NC1=O (stereo not shown) [BC19737] |
| < 1 µM | CCc1ccc(NS(=O)(=O)c2cc3c(cc2Br)NC(=O)CCO3)cc1 [BC19690] |

| IC50 | Compound |
| --- | --- |
| 1 to 25 µM | CCC1Oc2cc(S(=O)(=O)Nc3ccc(C)c(F)c3)c(Br)cc2N(C)C1=O (stereo not shown) [BC19924] |
| ≥ 25 µM | CCC1Oc2cc(S(=O)(=O)Nc3ccc(F)c(F)c3)c(Cl)cc2NC1=O (stereo not shown) [BC19735] |
| ≥ 25 µM | CCC1Oc2cc(S(=O)(=O)Nc3ccc(OC)c(Cl)c3)c(Cl)cc2NC1=O (stereo not shown) [BC19743] |
| 1 to 25 µM | CC1Oc2cc(S(=O)(=O)NCc3ccc(OC(F)(F)F)cc3)c(Br)cc2NC1=O (stereo not shown) [BC19357] |
| ≥ 25 µM | CC(C)CC1Oc2cc(S(=O)(=O)Nc3ccc(C(C)C)cc3)c(Br)cc2NC1=O (stereo not shown) [BC19766] |
| ≥ 25 µM | CCc1ccc(NS(=O)(=O)c2cc3c(cc2Br)N(C)C(=O)C(CC)O3)cc1 (stereo not shown) [BC19932] |
| ≥ 25 µM | COc1ccc(NS(=O)(=O)c2cc(Br)cc3c2OC(CC(C)C)C(=O)N3)cc1Cl (stereo not shown) [BC19779] |
| ≥ 25 µM | CC(C)CC1Oc2cc(S(=O)(=O)Nc3ccc(OC(F)(F)F)cc3)c(Br)cc2NC1=O (stereo not shown) [BC19758] |
| 1 to 25 µM | CC(C)CC1Oc2c(cc(Br)cc2S(=O)(=O)Nc2ccc(F)cc2)NC1=O (stereo not shown) [BC19781] |
| ≥ 25 µM | COc1ccc(NS(=O)(=O)c2cc3c(cc2Br)N(C)C(=O)C(C)O3)cc1 (stereo not shown) [BC19795] |
| < 1 µM | CC1Oc2cc(S(=O)(=O)Nc3cccc(Cl)c3)c(Cl)cc2NC1=O (stereo not shown) [BC19715] |
| 1 to 25 µM | CCc1cccc(NS(=O)(=O)c2cc3c(cc2Br)NC(=O)C(C)O3)c1 (stereo not shown) [BC19283] |
| 1 to 25 µM | CC1Oc2c(cc(Cl)cc2S(=O)(=O)Nc2ccc(F)cc2)NC1=O (stereo not shown) [BC19722] |
| ≥ 25 µM | CC(C)CC1Oc2c(cc(Br)cc2S(=O)(=O)Nc2ccc(OC(F)(F)F)cc2)NC1=O (stereo not shown) [BC19757] |
| ≥ 25 µM | CCC1Oc2cc(S(=O)(=O)NCCc3ccc(OC(F)(F)F)cc3)c(Br)cc2NC1=O (stereo not shown) [BC19373] |
| ≥ 25 µM | CCC1Oc2c(cc(Br)cc2S(=O)(=O)Nc2cccc(F)c2)NC1=O (stereo not shown) [BC19231] |
| ≥ 25 µM | CC1Oc2cc(S(=O)(=O)Nc3ccc(Cl)cc3)c(Br)cc2N(C)C1=O (stereo not shown) [BC19792] |
| 1 to 25 µM | CCC1Oc2cc(S(=O)(=O)NCc3ccccc3)c(Br)cc2NC1=O (stereo not shown) [BC19287] |
| ≥ 25 µM | COc1ccc(NS(=O)(=O)c2cc(Br)cc3c2OCC(=O)N3)cc1 [BC19175] |
